# Data: paper PMC8831520, “Small molecule SWELL1 complex induction improves glycemic control and nonalcoholic fatty liver disease in murine Type 2 diabetes” (Nature Communications, 2022)
# Test system: human umbilical vein endothelial cells (HUVECs)
# Assay: SWELL1, pAKT2 and p-eNOS western blots in HUVECs
# Format: cell-based
# Conditions: 96 h
# Protocol: HUVECs were purchased from ATCC (CRL-2922^TM) and were grown in M199 growth media supplemented with 20% FBS, 0.05 g Heparin Sodium Salt (Alfa Aesar), and 15 mg ECGS (Millipore Sigma). Cells were cultured on 1% of gelatin-coated plates at 37 °C and 5% CO2. For SN-40X stimulated eNOS and AKT signaling assays, HUVECs were treated for 96 h with the respective compounds and serum-starved overnight (+DMSO or +SN-40X) for 16 h in M199 media plus 1% FBS (Atlanta Biological). After the serum starve, HUVECs were returned to normal growth media for 30 min (+DMSO or +SN-40X) prior to lysate collection. Small interfering RNA (siRNA) mediated knockdown was adapted from Koh et. al., 2008[81]. Briefly, HUVECs were transfected with either a silencer select siRNA with si-SWELL1 (Cat#4392420, sense: […] antisense: […], Invitrogen) or a non-targeting control silencer select siRNA (Cat# 4390846, Invitrogen) upon reaching 90–95% confluency. siRNA was transfected twice, 24 and 72 h after initial seeding of HUVECs. Each siRNA was combined with Opti-MEM (285.25 µl, Cat#11058-021, Invitrogen) siPORT™ amine (8.75 µl, Cat#AM4503, Invitrogen), and the silencer select siRNA (6 µl) in a final volume of 300 µl. HUVECs were transfected for 4 h at 37 °C in 1% FBS containing DMEM media. For short hairpin RNA (shRNA) mediated knockdown approach, HUVECs were transduced with either human adenovirus type 5 targeting SWELL1 (Ad5-shSWELL1) or scrambled non-targeting control (Ad5-shSCR) at a multiplicity of infection (MOI) of 50 for 24 h at 37 °C upon reaching 70% confluency. The cells were then washed with DMEM media and transduced a second time, with a fresh virus, with an MOI of 25 for 12 h at 37 °C. After the final transduction step, the cells were serum-starved as described above for HUVECs, and lysates were collected. The SN-40X compounds were present in the culture media throughout the transfection/transduction for both the si/sh RNA mediated knockdown approaches. HEK-293 (ATCC, #CRL-1573™) cells were maintained in 90% DMEM (25 mM D-Glucose and 4 mM L-Glutamine) containing 10% fetal bovine serum (FBS) and 100 IU penicillin and 100 µg/ml streptomycin.
# Adipocytes were washed twice in ice-cold phosphate buffer saline and lysed in RIPA buffer (150 mM NaCl, 20 mM HEPES, 1% NP-40, 5 mM EDTA, pH 7.4) with proteinase/phosphatase inhibitors (Roche). The cell lysate was further sonicated in 10 s cycle intervals 2–3 times and centrifuged at 18,407×g for 30 min at 4 °C and repeated one more time to remove the excess fat. The supernatant was collected and further estimated for protein concentration using a DC protein assay kit (Bio-Rad). Fat and liver tissues were homogenized and suspended in RIPA buffer with inhibitors and further processed in a similar fashion as described above. HUVECs were also prepared in a similar fashion except the lysates were spun only once to remove the cells debris to obtain the clear supernatant. For islets, either human or mouse islets were washed twice with phosphate buffer saline (PBS) and lysed using RIPA buffer containing protease and phosphatase inhibitors. The lysate was further clarified by freezing in liquid nitrogen for about 10 s for three cycles. The supernatant was collected from the whole lysate centrifuged at 16,260×g for 20 min at 4 °C. […] For soleus muscle, the tissue was homogenized in a Bullet Blender homogenizer (Speed-9, Time-3 mins) in 8 volumes of ice-cold muscle homogenization buffer (50 mM Tris, 25 mM NaCl, 0.2% Nonidet P-40, 5 mM EGTA, 2.5 mM EDTA, 20 mM NaF, 20 mM Na4P2O7·10H2O, 2 mM Na3VO4, pH 7.4) supplemented with protease/phosphatase inhibitor (Roche). The homogenized lysate was centrifuged two times at 18,500×g for 20 min at 4 °C and supernatant was collected for protein estimation. Protein samples were further prepared by boiling in 2X or 4X Laemmli buffer. […]
smiles,measurement,setting,value
"CCCCC1(C2CCCC2)Cc2cc(OCC(=O)O)c(Cl)c(Cl)c2C1=O (stereo not drawn) [Inactive 1, 2-((2-butyl-6,7-dichloro-2-cyclopentyl-1-oxo-2,3-dihydro-1H-inden-5-yl)oxy)acetic acid]","effect on SWELL1, pAKT2 and p-eNOS",500 nM,no effect
"CCCCC1(C2CCCC2)Cc2cc(OCCCCCC(=O)O)c(Cl)c(Cl)c2C1=O (stereo not drawn) [SN-406, 6-((2-butyl-6,7-dichloro-2-cyclopentyl-1-oxo-2,3-dihydro-1H-inden-5-yl)oxy)hexanoic acid]",SWELL1 induction compared to vehicle,100 nM,1.5 fold
same,basal pAKT2 induction compared to vehicle,100 nM,2.8 fold
same,p-eNOS induction compared to vehicle,100 nM,5.5 fold
"CCCCC1(C2CCCC2)Cc2cc(OCCCC(=O)O)c(Cl)c(Cl)c2C1=O (stereo not drawn) [SN-401, 4-((2-butyl-6,7-dichloro-2-cyclopentyl-1-oxo-2,3-dihydro-1H-inden-5-yl)oxy)butanoic acid]",eNOS phosphorylation (Ser1177),500 nM,increases
same,dose dependence of p-eNOS induction,different concentrations,dose-dependent induction of p-eNOS in HUVECs that saturates beyond 100 nM
